# Measured values: EP0243717A1 (priority 1986, dated 1987)
# Several values for one entry are separate records, joined by “and”; a condition that tells them apart may be missing. Equal entries are not always repeated. Where two headings read alike, the source gives them in different places.
# Key:
# T. hyo = assay: Example 7: induced swine dysentery trial, drug in feed; type: in vivo, pigs; conditions: for No. Pig Days with General Appearance Score of: 1 / No. Pig Days with Hydration Score of: 1: 1 = Normal; for No. Pig Days with General Appearance Score of: 2: 2 = Depressed; for No. Pig Days with General Appearance Score of: 3: 3 = Moribund; for No. Pig Days with General Appearance Score of: 4: 4 = Dead; for No. Pig Days with Hydration Score of: 2: 2 = mild; for No. Pig Days with Hydration Score of: 3: 3 = moderate; for No. Pig Days with Hydration Score of: 4: 4 = severe
# Method: The test is conducted using 40 crossbred pigs approximately 6 weeks of age, weighing 12.8 kg at receipt. Pigs are assigned to one of the treatments outlined in the Table below, stratified by body weight and sex, and randomly assigned to pens within a randomized block design. Sexes intermixed within pens and proportioned among treatment groups. Treatments groups are randomly assigned to pens within experimental blocks to alleviate location variables (see Table 9). Each treatment group consists of two replicate pens with five pigs per pen.
# All pigs are adjusted to the test facility for four days prior to their challenge with 100 ml of T. hvodvsenteriae (T. hvo) broth culture. Respective treatment diets are provided 1 hr postchallenge and continued ad libitum for three weeks followed by a two week nonmedicated period. Clinical signs are noted and recorded for each pig each day postchallenge.
# Pigs are challenged on day 5 and then provided respective treatment diets immediately postchallenge for a 21-day period followed by a 14-day nonmedication period.
# Pigs are challenged on day 5 and then provided respective treatment diets immediately postchallenge for a 21-day period followed by a 14-day nonmedicated period.
# [1] = system: Clostridium perfringens KB 129 (ATCC 3624); assay: microbe, parasite or virus in culture; type: cell-based
# Xanthomonas oryzae KB 88 = assay: microbe, parasite or virus in culture; type: cell-based
# [2] = system: piricularia oryzae KF 180; assay: microbe, parasite or virus in culture; type: cell-based
# [3] = system: Bcteroides fragilis KB 169 (ATCC 23745); type: cell-based; conditions: Medium B
# Source text: (§1) For reference, the minimum growth inhibition concentrations (MIC) to various bacteria of above five drugs and Lankacidin C are shown in Table 3.
# [4] = system: Peptococcus variabilis KB 235 (ATCC 14955); type: cell-based; conditions: Medium B
# Source text: as §1
# Treponema hyodysenteriae [5] = type: in vivo, pigs
# Treponema hyodysenteriae [6] = type: in vivo, pigs; remark: listed apart in the source
# [7] = Treatment C, 50 g/ton Carbadox, Total
# [8] = Treatment C, 50 g/ton Carbadox, per pen (2, 7)
# [9] = Clostridium perfringens, ATCC3624
# [10] = Treatment A, 20 g/ton hygromycin A, Total
# [11] = Treatment A, 20 g/ton hygromycin A, per pen (1, 4)
# [12] = Treatment B, 10 g/ton hygromycin A, Total
# [13] = Treatment B, 10 g/ton hygromycin A, per pen (5, 8)
# [14] = Treatment C, 50 g/ton hygromycin A, Total
# [15] = Treatment C, 50 g/ton hygromycin A, per pen (2, 7)
# [16] = […], 0 normal, 1 diarrhea, 2 feces cruentae
# [17] = Group III, 5 additional healthy pigs penned with the treated pigs
# [18] = Group III, second line of 5 pigs (additional healthy pigs)
smiles,measurement,setting,value
"COC(=O)N/N=C/c1c[n+]([O-])c2ccccc2[n+]1[O-] [Carbadox, carbadox, reference compound]",No. Pig Days with General Appearance Score of: 1,T. hyo; [7],349 pig days
same,No. Pig Days with General Appearance Score of: 2,T. hyo; [7],1 pig days
same,No. Pig Days with General Appearance Score of: 3,T. hyo; [7],0 pig days
same,No. Pig Days with General Appearance Score of: 4,T. hyo; [7],0 pig days
same,No. Pig Days with General Appearance Score of: 1,T. hyo; [8],174 pig days and 175 pig days
same,No. Pig Days with General Appearance Score of: 3,T. hyo; [8],0 pig days
same,No. Pig Days with General Appearance Score of: 4,T. hyo; [8],0 pig days
"C=C[C@]1(C)C[C@@H](OC(=O)CSCCN(CC)CC)[C@]2(C)[C@H](C)CC[C@]3(CCC(=O)[C@H]32)[C@@H](C)[C@@H]1O [Dynamutilin, tiamulin]",MIC,[1]; [9],0.78 µg/mL
same,MIC,"Xanthomonas oryzae KB 88; Xanthomonas oryzae, KB88",< 3.12 µg/mL
same,MIC,[2],> 100 µg/mL
same,MIC,[3]; read-out: MIC,< 0.2 µg/mL
same,MIC,[4]; read-out: MIC,0.4 µg/mL
"CC(=O)[C@H]1O[C@@H](Oc2ccc(/C=C(\C)C(=O)N[C@@H]3[C@H](O)[C@@H](O)[C@H]4OCO[C@H]4[C@@H]3O)cc2O)[C@@H](O)[C@@H]1O [Hygromycin A, hygromycin A]",MIC,[1]; Medium B,6.25 µg/mL
same,No. Pig Days with General Appearance Score of: 1,T. hyo; [10],349 pig days
same,No. Pig Days with General Appearance Score of: 2,T. hyo; [10],1 pig days
same,No. Pig Days with Hydration Score of: 2,T. hyo; [10],0 pig days
same,No. Pig Days with General Appearance Score of: 3,T. hyo; [10],0 pig days
same,No. Pig Days with Hydration Score of: 3,T. hyo; [10],0 pig days
same,No. Pig Days with General Appearance Score of: 4,T. hyo; [10],0 pig days
same,No. Pig Days with Hydration Score of: 4,T. hyo; [10],0 pig days
same,No. Pig Days with General Appearance Score of: 1,T. hyo; [11],174 pig days and 175 pig days
same,No. Pig Days with Hydration Score of: 2,T. hyo; [11],0 pig days
same,No. Pig Days with General Appearance Score of: 3,T. hyo; [11],0 pig days
same,No. Pig Days with Hydration Score of: 3,T. hyo; [11],0 pig days
same,No. Pig Days with General Appearance Score of: 4,T. hyo; [11],0 pig days
same,No. Pig Days with Hydration Score of: 4,T. hyo; [11],0 pig days
same,No. Pig Days with Hydration Score of: 1,"T. hyo; Treatment A, 20 g/ton, Total",350 pig days
same,No. Pig Days with Hydration Score of: 1,"T. hyo; Treatment A, 20 g/ton, per pen (1, 4)",175 pig days
same,No. Pig Days with General Appearance Score of: 1,T. hyo; [12],349 pig days
same,No. Pig Days with General Appearance Score of: 2,T. hyo; [12],1 pig days
same,No. Pig Days with Hydration Score of: 2,T. hyo; [12],4 pig days
same,No. Pig Days with General Appearance Score of: 3,T. hyo; [12],0 pig days
same,No. Pig Days with Hydration Score of: 3,T. hyo; [12],0 pig days
same,No. Pig Days with General Appearance Score of: 4,T. hyo; [12],0 pig days
same,No. Pig Days with Hydration Score of: 4,T. hyo; [12],0 pig days
same,No. Pig Days with General Appearance Score of: 1,T. hyo; [13],175 pig days and 174 pig days
same,No. Pig Days with Hydration Score of: 2,T. hyo; [13],2 pig days
same,No. Pig Days with General Appearance Score of: 3,T. hyo; [13],0 pig days
same,No. Pig Days with Hydration Score of: 3,T. hyo; [13],0 pig days
same,No. Pig Days with General Appearance Score of: 4,T. hyo; [13],0 pig days
same,No. Pig Days with Hydration Score of: 4,T. hyo; [13],0 pig days
same,No. Pig Days with Hydration Score of: 1,"T. hyo; Treatment B, 10 g/ton, Total",346 pig days
same,No. Pig Days with Hydration Score of: 1,"T. hyo; Treatment B, 10 g/ton, per pen (5, 8)",173 pig days
same,No. Pig Days with Hydration Score of: 2,T. hyo; [14],3 pig days
same,No. Pig Days with Hydration Score of: 3,T. hyo; [14],0 pig days
same,No. Pig Days with Hydration Score of: 4,T. hyo; [14],0 pig days
same,No. Pig Days with Hydration Score of: 2,T. hyo; [15],2 pig days and 1 pig days
same,No. Pig Days with Hydration Score of: 3,T. hyo; [15],0 pig days
same,No. Pig Days with Hydration Score of: 4,T. hyo; [15],0 pig days
same,No. Pig Days with Hydration Score of: 1,"T. hyo; Treatment C, printed 50 g/ton, Total",347 pig days
same,No. Pig Days with Hydration Score of: 1,"T. hyo; Treatment C, printed 50 g/ton, per pen (2, 7), row",173 pig days and 174 pig days
same,Pathogen Detection Rate (%) During medication days 31 to 120,"Treponema hyodysenteriae [5]; Group III, hygromycin A 0.5mg/liter drinking water, rectal swabs",0/12
same,Mortality,"Treponema hyodysenteriae [5]; Group III: infected, hygromycin A 0.5mg/liter drinking water",0
same,Pathogen Detection Rate (%) Withdrawal days 31 to 120,"Treponema hyodysenteriae [5]; Group III, after end of medication, rectal swabs",0/12
same,Pathogen Detection Rate (%) Post infecting days 1 to 3 Before medication,"Treponema hyodysenteriae [5]; Group III, rectal swabs",10/12
same,Pathogen Detection Rate (%) Prein-fecting,"Treponema hyodysenteriae [5]; Group III, rectal swabs",0%
same,Average diarrhea index During medication,Treponema hyodysenteriae [5]; [16],0.22
same,Average diarrhea index Pre-medication,Treponema hyodysenteriae [5]; [16],0
same,Gross pathological examination of the colon,"Treponema hyodysenteriae [5]; […], necropsy after the experiment",normal
same,Change in morbidity (%) Third day,"Treponema hyodysenteriae [5]; pig, in vivo",0%
same,Change in morbidity (%) Thirtieth day,"Treponema hyodysenteriae [5]; pig, in vivo",0%
same,Average diarrhea index During observation,Treponema hyodysenteriae [6]; [17],0
same,Change in morbidity ( %) Commencement of observation,Treponema hyodysenteriae [6]; [17],0%
same,Change in morbidity ( %) During observation,Treponema hyodysenteriae [6]; [17],0%
same,Mortality (%),Treponema hyodysenteriae [6]; [17],0%
same,Mortality (%),"Treponema hyodysenteriae [6]; Group III, 5 infected treated pigs",0%
same,Pathogen Detection Rate (%) Commencement of observation,Treponema hyodysenteriae [6]; [18],0%
same,Pathogen Detection Rate (%) During observation,Treponema hyodysenteriae [6]; [18],0%
same,attack of the disease in infected pigs or healthy pigs,"Treponema hyodysenteriae [6]; Group III, during the observation period",no attack of the disease is observed
same,swine dysentery symptoms of infected pigs,"Treponema hyodysenteriae [6]; Group III, during the therapeutic period and at the starting time of observation",no swine dysentery symptoms
same,Average diarrhea index pre-medication,Treponema hyodysenteriae [6]; [16],0
same,Average diarrhea index During medication,"Treponema hyodysenteriae [6]; pig, in vivo",0
same,Average diarrhea index During observation,"Treponema hyodysenteriae [6]; pig, in vivo",0
same,Change in morbidity ( %) Commencement of observation,"Treponema hyodysenteriae [6]; pig, in vivo",0%
same,Change in morbidity ( %) During medication,"Treponema hyodysenteriae [6]; pig, in vivo",0/5
same,Change in morbidity ( %) During observation,"Treponema hyodysenteriae [6]; pig, in vivo",0%
same,Pathogen Detection Rate (%) Commencement of observation,"Treponema hyodysenteriae [6]; pig, in vivo",0%
same,Pathogen Detection Rate (%) During medication,"Treponema hyodysenteriae [6]; pig, in vivo",0%
same,Pathogen Detection Rate (%) During observation,"Treponema hyodysenteriae [6]; pig, in vivo",0%
same,Pathogen Detection Rate (%) pre-infection,"Treponema hyodysenteriae [6]; pig, in vivo",0%
same,MIC,Xanthomonas oryzae KB 88; Medium E,50 µg/mL
same,MIC,[2],>100 µg/mL
same,MIC,[3],50 µg/mL
CC(=O)C(=O)N[C@@H]1/C=C(C)/C=C/[C@@H](O)C/C=C(C)/C=C/[C@@H](O)C[C@H]2OC(=O)[C@]1(C)C(=O)[C@@H]2C [Lankacidin C],MIC,[1]; Medium B,3.12 µg/mL
same,MIC,Xanthomonas oryzae KB 88; Medium E,< 3.12 µg/mL
same,MIC,[2],>100 µg/mL
same,MIC,[3],0.78 µg/mL
same,MIC,[4],0.4 µg/mL
CCC[C@@H]1C[C@@H](C(=O)N[C@@H]([C@H]2O[C@H](SC)[C@H](O)[C@@H](O)[C@H]2O)[C@@H](C)O)N(C)C1 [Lincomycin],MIC,[1]; [9],0.4 µg/mL
same,MIC,"Xanthomonas oryzae KB 88; Xanthomonas oryzae, KB88",> 100 µg/mL
same,MIC,[2],> 100 µg/mL
same,MIC,[3]; read-out: MIC,0.4 µg/mL
same,MIC,[4]; read-out: MIC,0.78 µg/mL
